Test results: publication PMC6768109, “A novel assay for measuring recombinant human lysophosphatidylcholine acyltransferase 3 activity” (FEBS Open Bio, 2019)

What was measured:
[1] = target: T1, recombinant human lysophosphatidylcholine acyltransferase 3 (rhLPCAT3) (Homo sapiens, UniProt Q6P1A2); experiment: reversed-phase HPLC fluorescence assay of NBD-PC formation by purified rhLPCAT3; format: biochemical
T1 construct: gene LPCAT3; human LPCAT3 (BC065194.1) with HRV 3C site and C-terminal Twin-strep-tag, expressed in Sf9 cells, purified in DDM
T1 sequence (Q6P1A2 2-487): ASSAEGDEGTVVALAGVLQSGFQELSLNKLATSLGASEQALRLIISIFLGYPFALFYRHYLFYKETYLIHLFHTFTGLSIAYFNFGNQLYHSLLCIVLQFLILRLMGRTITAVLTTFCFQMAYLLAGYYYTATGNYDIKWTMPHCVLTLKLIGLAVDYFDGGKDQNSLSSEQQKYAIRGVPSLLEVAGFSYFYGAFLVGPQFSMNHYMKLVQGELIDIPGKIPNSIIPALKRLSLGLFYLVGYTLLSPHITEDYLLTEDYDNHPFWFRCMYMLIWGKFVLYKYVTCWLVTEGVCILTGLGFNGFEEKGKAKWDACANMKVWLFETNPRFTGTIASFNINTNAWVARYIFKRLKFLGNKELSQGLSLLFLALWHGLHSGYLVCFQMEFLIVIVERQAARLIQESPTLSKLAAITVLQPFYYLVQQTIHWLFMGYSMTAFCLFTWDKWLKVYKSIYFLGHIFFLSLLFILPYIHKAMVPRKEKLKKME

[2] = substrate: CCCCC/C=C\C/C=C\C/C=C\C/C=C\CCCC(=O)SCCNC(=O)CCNC(=O)[C@H](O)C(C)(C)COP(=O)(O)OP(=O)(O)OC[C@H]1O[C@@H](n2cnc3c(N)ncnc32)[C@H](O)[C@@H]1OP(=O)(O)O; experiment: bisubstrate kinetics (Km) of purified enzyme, reversed-phase HPLC with fluorescence detection; format: biochemical, Homo sapiens

Work on `CCCOC(=O)c1ccc(N2C(=O)C(Cl)=C(Cl)C2=O)cc1` [TSI-10] yielded an IC50 [1] of 174 ± 1.04 µM.

B1: recombinant human lysophosphatidylcholine acyltransferase 3 (rhLPCAT3) (Homo sapiens) (protein)
chain: ASSAEGDEGTVVALAGVLQSGFQELSLNKLATSLGASEQALRLIISIFLGYPFALFYRHYLFYKETYLIHLFHTFTGLSIAYFNFGNQLYHSLLCIVLQFLILRLMGRTITAVLTTFCFQMAYLLAGYYYTATGNYDIKWTMPHCVLTLKLIGLAVDYFDGGKDQNSLSSEQQKYAIRGVPSLLEVAGFSYFYGAFLVGPQFSMNHYMKLVQGELIDIPGKIPNSIIPALKRLSLGLFYLVGYTLLSPHITEDYLLTEDYDNHPFWFRCMYMLIWGKFVLYKYVTCWLVTEGVCILTGLGFNGFEEKGKAKWDACANMKVWLFETNPRFTGTIASFNINTNAWVARYIFKRLKFLGNKELSQGLSLLFLALWHGLHSGYLVCFQMEFLIVIVERQAARLIQESPTLSKLAAITVLQPFYYLVQQTIHWLFMGYSMTAFCLFTWDKWLKVYKSIYFLGHIFFLSLLFILPYIHKAMVPRKEKLKKME
notes: human LPCAT3 (BC065194.1) with HRV 3C site and C-terminal Twin-strep-tag, expressed in Sf9 cells, purified in DDM
In the case of B1, the Km [2] is reported as 11.03 ± 0.51 µM.
